The text below walks through data of patent US9192552B2, “Personal care compositions with improved solubility of a solid UV active” (priority 2011, dated 2015).

Read-outs that look alike come from different tables or passages of the source.

Series [1] is described as follows: Solvency test: solubility of butyl methoxydibenzoylmethane (avobenzone) in solvent, visible crystals after storage. How it is done:
(§1) In the testing provided below, “soluble” (or “solubilize”), in relation to the solubility of a solid solute being tested, means that no visible crystals may be seen after a prescribed storage period at a storage condition. The storage period can vary. Suitable storage periods include about 24 hours, about 1 week, and about 30 days. Suitable storage conditions include ambient conditions or cold storage at 5° C. (approximately 1 atm). In certain embodiments, solubility may be determined after a 24 hour storage period at ambient conditions. In other embodiments, solubility may be determined after 20 days in cold storage. Other testing parameters may include storage for prolonged time periods (e.g., 30 day, 50 days, 60 days, 90 days) and at variable temperatures (e.g., 5° C., 50° C.).
The solvency of an isosorbide diester within the scope of the present invention was tested against two conventional, industry standard solvents. […] Various ratios of the solute:solvent were prepared by mixing solvents and the solid sunscreen (solute) and heating to 70° C. Upon reaching 70° C., the examples may be mixed for about 10 minutes. The mixtures are placed in a covered vial and cooled to the storage temperature. Solubility was evaluated for samples stored 24 hours after mixing at room temperature. […]

Series [2] is described as follows: Solvency test: solubility of bis-ethylhexyloxyphenol methoxyphenyl triazine (bemotrizinol) in solvent, visible crystals after storage. How it is done:
as §1
The solvency of an isosorbide diester within the scope of the present invention was tested against two conventional, industry standard solvents. […] Solubility was also evaluated for samples stored for 7 day at 5° C. followed by equilibration to ambient conditions.

Where [3] appears, read: solute avobenzone (PARSOL 1789), 24 hour rest at Ambient Conditions.
Where [4] appears, read: solute bemotrizinol (Tinosorb S), 24 hour rest at Ambient Conditions.
Setting [5] is: solute bemotrizinol (Tinosorb S), 30 day storage at 5° C.

In the case of `CCCCCCCCCCCC(=O)N(C)CC(=O)OC(C)C` [Isopropyl lauroyl sarcosinate, isopropyl lauroyl sarcosinate, reference compound], in series [1], the “Solubility at Solute:Solvent Ratio 1:2” value was “S”, the “Solubility at Solute:Solvent Ratio 1:3” value is “S” and the “Solubility at Solute:Solvent Ratio 1:4” value was “S”. Further, in series [2], the “Solubility at Solute:Solvent Ratio 1:4” value was “S”, the “Solubility at Solute:Solvent Ratio 1:6” value was “S” and the “Solubility at Solute:Solvent Ratio 1:8” value was “S”.

On to `CCCCCCCC(=O)OC1COC2C(OC(=O)CCCCCCC)COC12` (stereo not shown) [Isosorbide dicaprylate, isosorbide dicaprylate], for which, in series [1] (setting [3]), the “Solubility at Solute:Solvent Ratio 1:3” value is listed as “S” and the “Solubility at Solute:Solvent Ratio 1:4” value is “S”. Further, the “Solubility at Solute:Solvent Ratio 1:4” value in series [1] (solute avobenzone (PARSOL 1789), 30 day storage at 5° C.) is “S”. Further, the “Solvency compared with the industry leading solvents” value in series [1] (solute avobenzone, versus isopropyl lauroyl sarcosinate and C12-15 alkyl benzoate) is recorded as “equivalent to the industry leading solvents”. In series [2] (setting [4]), the “Solubility at Solute:Solvent Ratio 1:3” value was “S”, the “Solubility at Solute:Solvent Ratio 1:4” value is listed as “S”, the “Solubility at Solute:Solvent Ratio 1:6” value is reported as “S” and the “Solubility at Solute:Solvent Ratio 1:8” value is “S”. Moreover, in series [2] (setting [5]), the “Solubility at Solute:Solvent Ratio 1:3” value is on record as “S”, the “Solubility at Solute:Solvent Ratio 1:6” value is given as “S”, the “Solubility at Solute:Solvent Ratio 1:8” value is “S” and the “Solubility at Solute:Solvent Ratio 14” value is given as “S”. In addition, the “Solvency compared with the industry leading solvents” value in series [2] (solute bemotrizinol, versus isopropyl lauroyl sarcosinate and C12-15 alkyl benzoate) was “superior to the industry leading solvents”.
